Ki data for one compound are collected here from patent US9611251B2, “Substituted piperidine compounds and their use as orexin receptor modulators” (Janssen Pharmaceutica NV, priority 2013, dated 2017).

The structures appear in SMILES notation. pKi: −log10 of the molar value.

Experiment [1] addresses rat orexin 1 receptor (Rattus norvegicus, UniProt P56718). Description: Rat orexin 1 receptor radioligand binding. To be noted: rat orexin 1 receptor radioligand binding; averages of 2-20 runs; read-out: rOX1 Ki. In short, it runs like this: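 Cell-suspension competition binding used 4 nM final tritiated thiazolyl-pyrrolidinyl-methanone radioligand in PBS, ≤0.1% DMSO, with 10 µM almorexant defining nonspecific binding. Filter-bound radioactivity was counted in triplicate. IC50 came from one-site competition fits and was converted to Ki using the predetermined Kd.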

Experiment [2] addresses human orexin 1 receptor (Homo sapiens, UniProt O43613). As to the kind of experiment: Human orexin 1 receptor radioligand binding. To be noted: human orexin 1 receptor radioligand binding; averages of 2-20 runs; read-out: hOX1 Ki.
The target of experiment [3] is human orexin 2 receptor (Homo sapiens (Human), UniProt O43614). As to the kind of experiment: Human orexin 2 receptor radioligand binding ([3H]-EMPA). To be noted: averages of 2-20 runs, read-out: hOX2 Ki. In a few lines: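 Competition binding using homogenized HEK293 cells stably expressing human orexin 2 receptor, [3H]-EMPA at 2 nM final and ≤0.1% DMSO; nonspecific binding set with 10 μM almorexant. Filter-bound radioactivity counted by scintillation; one-site competition IC50 converted to Ki using pre-determined Kd, compounds run in triplicate.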
human orexin 2 receptor, sequence (O43614 whole entry): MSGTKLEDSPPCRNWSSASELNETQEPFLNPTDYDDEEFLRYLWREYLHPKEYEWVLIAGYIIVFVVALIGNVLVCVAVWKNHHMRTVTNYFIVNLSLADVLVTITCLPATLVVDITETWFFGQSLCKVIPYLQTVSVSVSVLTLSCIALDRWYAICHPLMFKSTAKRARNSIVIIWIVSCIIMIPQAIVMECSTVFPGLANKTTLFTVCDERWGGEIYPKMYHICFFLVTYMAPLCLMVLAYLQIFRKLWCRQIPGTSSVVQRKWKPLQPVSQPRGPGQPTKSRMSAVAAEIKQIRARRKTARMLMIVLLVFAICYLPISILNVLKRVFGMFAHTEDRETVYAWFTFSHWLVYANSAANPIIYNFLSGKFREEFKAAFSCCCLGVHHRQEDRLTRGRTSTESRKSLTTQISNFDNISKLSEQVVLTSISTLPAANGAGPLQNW

In the case of `C[C@H]1[C@H](Oc2ncc(C(F)(F)F)cc2F)CCCN1C(=O)c1ccccc1-n1nccn1` [Example 224, (2-(2H-1,2,3-triazol-2-yl)phenyl)((2S,3R)-3-((3-fluoro-5-(trifluoromethyl)pyridin-2-yl)oxy)-2-methylpiperidin-1-yl)methanone], the pKi (commonly the negative decadic logarithm of the Ki, by convention in mol/L) in experiment [1] was 7.48; in experiment [2] it was 7.33; in experiment [3], 6.24.
